Consider 2 compounds from publication PMC6435698, “Keggin-type polyoxotungstates as mushroom tyrosinase inhibitors - A speciation study” (Scientific Reports, 2019).

This data set can be described thus: speciation / hydrolytic stability of POTs at pH 6.8 by 183W NMR. Format: physicochemical. To be noted: 183W NMR (and 31P, 27Al NMR), ca. 20 mM in 50 mM Na-citrate pH 6.8. The source says: ^183W NMR spectroscopy is the most widely applied and reliable technique for the structural characterization of POTs in solution as well as to monitor the progress of reaction. Hundreds of POM ^183W NMR spectra have been reported since the first ^183W NMR spectrum for [SiW11]^8− observed by Acerete et al. in[47]. The here-presented ^183W NMR analysis yielded a single signal for all intact [XW12]^n− structures (Figs 4A,D and S11–S14), reflecting the perfect tetrahedral symmetry of the Keggin α-isomer and clearly confirming the isomeric purity of the prepared POTs.
^183W NMR samples for all the POM compounds were prepared in high concentrations similar to the stock solutions used for kinetic experiments (usually about 20 mM) in 50 mM Na-citrate pH 6.8 if not stated otherwise. ^183W NMR spectra were recorded with a Bruker FT-NMR spectrometer Avance Neo 500 MHz in 10 mm tubes for a total experiment time of ca. 60 hours, using standard pulse programs at 20.836 MHz and a 63° flip angle with 1 s of relaxation delay; the temperature was kept at 25 °C. Chemical shifts were measured relative to external 1 M Na2WO4. For [PW12]^3−, [PW11]^7− and […], additional ^31P NMR spectra were taken, structures of [AlW12]^5−, [AlW11]^9− and [BeW12]^6− were confirmed by ^27Al NMR or ^9Be NMR spectroscopy, respectively. ^27Al, ^9Be and ^31P NMR spectra were recorded at 130.368, 70.273 and 202.53 MHz, respectively. Chemical shifts are given relative to Al(NO3)3, BeSO4 or 85% H3PO4.
In the ^183W NMR spectrum of [PW12]^3− at pH 6.8 (see Fig. 4E), the six most intense peaks can be assigned to six different symmetry-equivalent positions in [PW11]^7−[47],[49]. The less intense signals in the ^183W NMR spectrum can be attributed to other [PW12]^3− hydrolysis products[51] that have been identified in the ^31P NMR spectrum (Fig. S7B). […] Based on both spectra, it can be concluded that [PW11]^7− prevails in aqueous solution at pH 6.8. […] Assignment is complicated by the special pseudo-paramagnetic character of this cluster (see ^183W NMR analysis in Fig. S15, SI section 2.2.2.4).
In order to identify the tungstate species responsible for the inhibitory effect observed with the orthotungstate solution [WO4]^2−, ^183W NMR was performed in reaction buffer pH 6.8, which had to be readjusted by a few drops of 5 M HCl to compensate for the marked basicity of [WO4]^2−. […] The chemical shifts are in agreement with literature data[56]. […] The ^183W NMR spectra for the POT clusters with higher negative charges (see Figs S11–S14) show only one single signal, thereby confirming full structural integrity of the corresponding Keggin anions at pH 6.8. The lacunary cluster [AlW11]^9− evoked a rise in pH up to 8.5 upon dissolution in reaction buffer (pH 6.8) to reach a final concentration of 20 mM. […] In the [BeW12]^6− spectrum (Fig. S14), three additional signals at −147.6, −155.3 and −168.6 ppm can be seen, which were assigned to the β-Keggin isomer. The C3v symmetry of this isomer results in three shifts with intensity ratio 1:2:1, as previously observed for other β-isomers of Keggin structure. The β-isomer is commonly formed during any synthesis of Keggin clusters, but rearranged to the α-form during prolonged thermal reaction. Thus, the occurrence of the β-form in the present preparation can be ascribed to the reduced reaction time applied for the hydrothermal synthesis. […] The ^31P (cf. Fig. S8) and ^183W NMR (Fig. S15) spectra of [PW11Ni]^5− have a special character originating from the peculiar electronic configuration of Ni^2+ and were in general accordance with reference data[61]. In the presented ^183W NMR spectrum, signals from those W atoms in direct neighbourhood to the Ni^2+ center cannot be observed, which complicates unambiguous assignment to the desired substituted POT structure. However, the obtained results can be explained in the light of electronic effects. […]

With `[Na+].[Na+].[O]=[W](=[O])([O-])[O-]` [[WO4]^2−, Na2WO4, reference compound], the “structural integrity / hydrolysis at pH 6.8” value is reported as “no detectable residual free orthotungstate”.
In the case of K4[SiW12O40] [[SiW12]^4−], the “structural integrity / hydrolysis at pH 6.8” value was “partial hydrolysis”.
